From ChEMBL document CHEMBL1201862, “PubChem BioAssay data set” (2004)
The source made the active and inactive calls.

Legend:
[1] = NIH3T3 cell viability loss – ATP luminescence, mouse fibroblasts, counter-screen, dose response (AID 2010); type: functional, cell-based;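 note: cells exposed to compound for about 90 hours before reading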
[2] = Trypanosoma cruzi growth suppression in host cells – NIH3T3 host cells, beta-gal luminescence, confirmation (AID 2044); type: functional, cell-based;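 note: intracellular parasites grown in NIH/3T3 mouse fibroblasts as host cells; luminescent beta-galactosidase reporter signal from transgenic T. cruzi replicating inside host cells; inhibitors lower the luminescence signal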
[3] = test system: INS1; test: INS-1E survival protection against cytokine death – cell-based, luminescence, retest, dose response (AID 449756); type: functional; conditions: Rattus norvegicus;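 note: cell death triggered by IL-1 beta plus TNF-alpha plus IFN-gamma mixture; protective hits raise ATP signal compared with cytokine alone wells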
[4] = molecular target: Cytochrome P450 2C19 (Homo sapiens, UniProt P33261); test: Cytochrome panel assay with activity outcomes. Panel member name: p450-cyp2c19 Compounds with AC50 equal or less than 10 uM are considered active; type: functional
[5] = molecular target: Cytochrome P450 2C9 (Homo sapiens, UniProt P11712)
[6] = molecular target: Cytochrome P450 2D6 (Homo sapiens, UniProt P10635);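 note: CYP2D6 member of a cytochrome P450 panel assay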
[7] = alpha-synuclein stem-loop luciferase translation blockers – H4 neuroglioma cells, luminescence, confirmation (AID 1988); type: functional, cell-based
[8] = Luminescence Cell-Based Dose Response HTS to Identify Inhibitors of 5'UTR Stem-Loop Driven Prion Protein mRNA Translation in H4 Neuroglioblastoma Cells. [Related pubchem assays: 1827 (Project Summary), 1813 (Primary HTS)]; type: functional
[9] = luciferase reporter signal suppression in cells – H4 neuroglioma cells, luminescence, dose response (AID 1990); type: functional, cell-based
[10] = test system: Streptococcus sp. 'group A'; test: Streptococcus pyogenes SK(-)GAS viability under kanamycin – luminescence, BacTiterGlo, confirmation, counter-screen for streptokinase expression inhibitor project, dose response (AID 1900); type: functional, organism-based
[11] = test system: Streptococcus; test: GAS UMAA2166 growth inhibition – luminescence, BacTiterGlo, counter-screen for streptokinase expression inhibitor project, dose response (AID 1915); type: functional, organism-based;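 note: potency for reduction of bacterial viability or growth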

Sequence of Cytochrome P450 2C9 (P11712 whole entry): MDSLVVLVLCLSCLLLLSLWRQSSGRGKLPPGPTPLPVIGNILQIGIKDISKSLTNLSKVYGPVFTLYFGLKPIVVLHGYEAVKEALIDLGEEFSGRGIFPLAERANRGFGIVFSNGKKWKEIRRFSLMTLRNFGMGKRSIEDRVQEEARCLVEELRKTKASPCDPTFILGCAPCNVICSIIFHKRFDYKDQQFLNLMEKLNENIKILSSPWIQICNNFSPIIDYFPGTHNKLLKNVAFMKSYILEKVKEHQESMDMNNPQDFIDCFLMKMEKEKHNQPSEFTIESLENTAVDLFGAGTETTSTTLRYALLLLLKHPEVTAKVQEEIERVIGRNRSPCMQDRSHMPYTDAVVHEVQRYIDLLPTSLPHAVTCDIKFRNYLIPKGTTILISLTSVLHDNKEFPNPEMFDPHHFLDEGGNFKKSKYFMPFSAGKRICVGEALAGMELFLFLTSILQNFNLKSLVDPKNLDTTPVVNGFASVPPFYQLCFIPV
Sequence of Cytochrome P450 2C19 (P33261 whole entry): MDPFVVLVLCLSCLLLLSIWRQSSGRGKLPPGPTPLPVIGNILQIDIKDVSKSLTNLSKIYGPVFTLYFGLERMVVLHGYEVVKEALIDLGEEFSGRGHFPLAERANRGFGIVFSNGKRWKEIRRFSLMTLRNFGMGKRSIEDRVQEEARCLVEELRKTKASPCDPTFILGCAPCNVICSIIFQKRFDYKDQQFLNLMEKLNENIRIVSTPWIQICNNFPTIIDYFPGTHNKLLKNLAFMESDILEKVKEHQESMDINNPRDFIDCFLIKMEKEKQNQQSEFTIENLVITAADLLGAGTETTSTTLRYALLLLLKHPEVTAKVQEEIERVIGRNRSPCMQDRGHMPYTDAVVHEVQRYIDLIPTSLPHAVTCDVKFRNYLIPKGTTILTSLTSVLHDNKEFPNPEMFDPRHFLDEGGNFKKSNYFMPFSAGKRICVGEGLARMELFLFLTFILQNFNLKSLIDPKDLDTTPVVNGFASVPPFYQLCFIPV
Sequence of Cytochrome P450 2D6 (P10635 whole entry): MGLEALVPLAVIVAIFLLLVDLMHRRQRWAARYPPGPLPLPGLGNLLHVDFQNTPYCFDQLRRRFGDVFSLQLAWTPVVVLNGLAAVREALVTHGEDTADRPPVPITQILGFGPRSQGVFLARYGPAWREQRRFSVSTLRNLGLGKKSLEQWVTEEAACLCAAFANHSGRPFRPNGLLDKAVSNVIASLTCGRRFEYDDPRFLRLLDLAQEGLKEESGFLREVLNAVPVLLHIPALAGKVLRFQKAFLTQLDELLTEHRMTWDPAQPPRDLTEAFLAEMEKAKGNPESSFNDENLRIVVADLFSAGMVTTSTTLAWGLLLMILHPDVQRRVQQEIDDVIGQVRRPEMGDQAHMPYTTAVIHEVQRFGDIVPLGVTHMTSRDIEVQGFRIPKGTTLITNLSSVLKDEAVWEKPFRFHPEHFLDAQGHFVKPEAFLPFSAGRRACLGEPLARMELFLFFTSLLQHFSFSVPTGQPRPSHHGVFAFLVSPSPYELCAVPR

O=C(Nc1ccc([N+](=O)[O-])cn1)c1cc(-c2cccc(Cl)c2)nc2ccccc12
EC50 [1]: > 30 µM (not active) | EC50 [2]: 0.809 µM (active)

NC(=O)c1[nH]cnc1N
EC50 [1]: 4.94 µM (active) | EC50 [2]: > 30 µM (not active)

O=c1cc(N2CCCCC2)c(-c2ccccc2)nn1Cc1ccc(F)cc1
EC50 [1]: 9.08 µM (active) | EC50 [2]: 2.17 µM (active)

CC(=O)NC(C)c1cc(Cl)c2cccnc2c1O (stereo unspecified)
AC50 [3]: 4.08 µM (active)

COC(=O)[C@@]1(Cc2ccc(F)cc2)[C@H]2c3cc(C(=O)N(C)C)n(CCCNc4ccc(C(F)(F)F)cc4Cl)c3C[C@H]2CN1C(=O)c1ccccc1
AC50 ([4]; read-out: AC50): 25.1 µM (inconclusive)

CN(Cc1ccco1)c1ncnc2ccc(-c3ccccc3C(F)(F)F)cc12
AC50 [5]: 1 µM (inconclusive)

CN(C)CCO[C@@H](c1ccc(Cl)cc1)c1ccccn1 [ROTOXAMINE]
AC50 [6]: 12.6 µM (inconclusive) | AC50 [4]: inconclusive

Cc1c(CCO)c(=O)n(C)n1C(=O)c1ccc(F)cc1
AC50 [6]: 22.4 µM (inconclusive)

C/C(=N\Nc1nc(-c2ccccn2)nc2ccccc12)c1ccc(F)cc1
AC50 [3]: 41.9 µM (active) | EC50 [7]: 8.26 µM (active) | EC50 [8]: 3.74 µM (active) | EC50 [9]: 9.76 µM (active)

COc1cc2c3cc1Oc1cc(ccc1O)C[C@@H]1c4c(cc(OC)c(O)c4Oc4ccc(cc4)C[C@H]3[N+](C)(C)CC2)CC[N+]1(C)C
AC50 [4]: inconclusive

COc1ccc(-c2ccc([C@H]3[C@@H]4C=CCC[C@@]4(C)C(=O)N3Cc3ccccc3)c(F)c2)cc1
AC50 [3]: 13.2 µM (active)

CCN(CC)C(=O)C1CC(=O)N(c2ccc(OC)cc2)C1c1ccc(OC)cc1 (stereo unspecified)
AC50 ([4]; read-out: AC50): 39.8 µM (inconclusive)

COc1ncc2nc(-c3cccs3)c(=O)n(Cc3ccc(F)cc3)c2n1
AC50 [6]: 0.398 µM (inconclusive)

Cc1noc(/C=C/N(C)C)c1S(=O)(=O)N1CCCC(C(=O)NC2CCCCC2)C1 (stereo unspecified)
EC50 [1]: 6.5 µM (active) | EC50 [2]: 0.484 µM (active)

COc1ccc2[nH]c(C)c(CCN(Cc3cccs3)C(S)=Nc3ccc(F)cc3)c2c1
EC50 [1]: > 60 µM (not active) | EC50 [2]: 4.21 µM (active)

COc1ccc(OC)c(-c2nc(CN3CCCCC3c3cccnc3)c(C)o2)c1 (stereo unspecified)
EC50 [1]: > 60 µM (not active) | EC50 [2]: 2.02 µM (active)

Cc1cc(C)cc(N(C(=O)C2CCCC2)C2C=CS(=O)(=O)C2)c1 (stereo unspecified)
AC50 ([4]; read-out: AC50): 17.8 µM (inconclusive) | AC50 [5]: 35.5 µM (inconclusive)

CCN(CC)CC#CCC(O)(c1ccccc1)C1CCCC1 (stereo unspecified)
EC50 [1]: > 60 µM (not active) | EC50 [2]: 0.52 µM (active)

CC(=O)n1cc([C@H]2C=C(C(=O)N3CCN(Cc4ccccc4)CC3)O[C@@H](OCc3ccc(CO)cc3)C2)c2ccccc21
EC50 [1]: > 30 µM (not active) | EC50 [2]: 0.435 µM (active)

Clc1ccccc1-c1nc(N2CCNCC2)c2ccccc2n1
AC50 [6]: 31.6 µM (inconclusive)

O=C(N=Nc1c(O)[nH]c2ccc(Br)cc12)c1cc(-c2cccs2)nc2ccccc12
EC50 [7]: 9.7 µM (active) | EC50 [1]: > 60 µM (not active) | EC50 [8]: 16.6 µM (active) | EC50 [9]: > 120 µM (not active) | EC50 [2]: 1.41 µM (active)

COc1ccc(OCCSc2nc[nH]n2)cc1
AC50 [5]: 22.4 µM (inconclusive)

CCCN(CCC)C(=S)NC(=O)c1ccc(Cl)cc1Cl
AC50 [6]: 10 µM (inconclusive)

COc1ccc(CNC(=O)C(C)Sc2nc3ccccc3c(=O)n2CCCN2CCOCC2)cc1 (stereo unspecified)
EC50 [7]: > 120 µM (not active) | EC50 [8]: > 120 µM (not active) | EC50 [9]: 23.9 µM (active)

COc1cc(C(=O)NC(=S)NNC(=O)c2cnccn2)cc(OC)c1OC
AC50 [3]: 1.27 µM (active)

Fc1cccc(Cl)c1-c1nnc2ccc3ccccc3n12
AC50 [3]: 10 µM (active)

Cc1cccc(C(=O)N[C@H](C(=O)Nc2nc3ccc(S(C)(=O)=O)cc3s2)C(C)C)c1
EC50 [7]: > 120 µM (not active) | EC50 [8]: > 120 µM (not active) | EC50 [9]: > 120 µM (not active)

COc1cccc(CC2(CO)CCCN(Cc3ccc(CN4CCCCC4)s3)C2)c1 (stereo unspecified)
EC50 [1]: 9.85 µM (active) | EC50 [2]: 0.253 µM (active)

CCCn1c(-c2cccc([N+](=O)[O-])c2)nc2c1c(=O)[nH]c(=O)n2Cc1ccccc1
EC50 [7]: > 120 µM (not active) | EC50 [8]: > 120 µM (not active) | EC50 [9]: 17.5 µM (active)

COc1cccc(-n2c(CN3CCN(c4cccc(C)c4)C(C)C3)nc3ccc([N+](=O)[O-])cc3c2=O)c1 (stereo unspecified)
EC50 [1]: > 60 µM (not active) | EC50 [2]: 1.91 µM (active)

CC(=O)OC[C@@H]1O[C@H](C/C=N\O[C@@H](C)c2cn([C@H]3COC[C@H]3O)nn2)C=C[C@@H]1OC(C)=O
AC50 [4]: inconclusive

CS(=O)(=O)NCCSCc1c(Cl)cccc1Cl
EC50 [1]: > 60 µM (inconclusive) | EC50 [2]: 36.9 µM (active)

O=C(N/N=C/c1ccc([N+](=O)[O-])o1)c1ccc2c(c1)OCO2
EC50 [1]: > 30 µM (not active) | EC50 [2]: 0.172 µM (active)

CCc1c2c(nc3ccc(OC)cc13)COC2
AC50 [6]: 20 µM (inconclusive) | AC50 ([4]; read-out: AC50): 20 µM (inconclusive)

Cc1c(C(=O)N(Cc2ccccc2)C(C)C)oc2ccc(S(=O)(=O)N3CCOCC3)cc12
AC50 [3]: 48 µM (active)

CCN(CC)c1ccc(/N=C/c2cc(Br)ccc2O)cc1
EC50 [1]: > 60 µM (inconclusive) | EC50 [2]: 4.39 µM (active)

O=c1c(Cc2ccccc2)c(O)nc2n1CCS2
AC50 ([4]; read-out: AC50): 14.1 µM (inconclusive) | AC50 [5]: 14.1 µM (inconclusive)

N#Cc1cccc(NC(=O)N2CCCC3(CCN(C(=O)c4ccncc4)CC3)C2)c1
AC50 [6]: 25.1 µM (inconclusive)

CCC/C=C(\CCC)C(NC(=O)Oc1ccc(F)cc1)c1ccc(C(=O)OC)cc1 (stereo unspecified)
AC50 [5]: 39.8 µM (inconclusive)

CN1c2ccc([N+](=O)[O-])cc2N(C)C1(C)c1ccccc1 (stereo unspecified)
EC50 [1]: > 60 µM (not active) | EC50 [2]: 2.85 µM (active)

Cc1cc(C)c2c(ccc3cccc[n+]32)c1.[O-][Cl+3]([O-])([O-])[O-]
AC50 [3]: 4.61 µM (active)

COc1cccc(Nc2ncc3nc(-c4cccs4)c(=O)n(C[C@H]4CCCO4)c3n2)c1
AC50 [6]: 15.8 µM (inconclusive)

COc1cc(C(=O)NCC(=O)N/N=C(C)\C=C\c2ccccc2)cc(OC)c1OC
EC50 [7]: > 120 µM (not active) | EC50 [8]: 24.9 µM (active) | EC50 [9]: > 120 µM (not active)

CC1CCN(C(NC(=O)c2ccco2)C(=O)c2ccccc2)CC1 (stereo unspecified)
AC50 [6]: 15.8 µM (inconclusive)

CCN(CC)c1ccc2c(Cl)cc(=O)oc2c1
AC50 [5]: 31.6 µM (inconclusive)

Cc1ccc(C(=O)Nc2cc3c(oc2=O)CCCC3=O)cc1
AC50 [6]: 0.01 µM (inconclusive)

Cc1ccccc1NC(=O)NCC1CCN(Cc2cccc(Cl)c2)CC1
EC50 [1]: > 30 µM (not active) | EC50 [2]: 1.14 µM (active)

CC(C)c1ccc(Cn2ccc3c4c(N)nc(NC5CC5)nc4ccc32)cc1
AC50 ([4]; read-out: AC50): 31.6 µM (inconclusive)

Cc1ccc2cc(CN(Cc3ccco3)C(=O)NC3CCCCC3)c(O)nc2c1C
EC50 [7]: 13.6 µM (active) | EC50 [8]: 16.4 µM (active) | EC50 [9]: 15.9 µM (active)

O=C(CCc1ccc(S(=O)(=O)NC2CCCCC2)cc1)N(Cc1ccccc1)Cc1ccccc1
AC50 [6]: 12.6 µM (inconclusive)

O=C1CC(c2ccc3c(c2)OCO3)CN1 (stereo unspecified)
AC50 ([4]; read-out: AC50): 39.8 µM (inconclusive)

Cc1cc(C)n(-c2nc(NC(C)(C)C)nc(NC(C)(C)C)n2)n1
EC50 [10]: 0.694 µM (active) | AC50 [4]: inconclusive | AC50 [3]: 3.14 µM (active) | AC50 [5]: 8.91 µM (inconclusive) | EC50 [11]: 1.72 µM (active)

c1ccc(CCc2cccnc2)nc1
AC50 [6]: 7.94 µM (inconclusive)

Cc1cccc(N(C)S(=O)(=O)c2ccc3[nH]c(=O)c(=O)[nH]c3c2)c1
AC50 ([4]; read-out: AC50): 20 µM (inconclusive)

COc1cccc2c1OC1(C)CC2NC(=O)N1Cc1ccccc1 (stereo unspecified)
EC50 [7]: 16.1 µM (active) | EC50 [8]: 7.38 µM (active) | EC50 [9]: 21.6 µM (active)

COc1ccccc1N1CCN(c2nc(C)nc3c2oc2ccccc23)CC1
EC50 [7]: 0.193 µM (active) | EC50 [8]: 0.842 µM (active) | EC50 [9]: 10.3 µM (active)

COCCn1c(=O)c(C)nc2cnc(Oc3ccc(OC)cc3)nc21
AC50 ([4]; read-out: AC50): 39.8 µM (inconclusive) | AC50 [5]: 20 µM (inconclusive)

O=C(Cn1ncc2c(=O)oc3ccccc3c21)N1CCCc2ccccc21
EC50 [7]: > 120 µM (not active) | EC50 [8]: 6.05 µM (active) | EC50 [9]: > 120 µM (not active)

COc1ccc(Cc2noc(CN3CCCN(C4Cc5ccccc5C4)CC3)n2)cc1OC
EC50 [1]: > 60 µM (not active) | EC50 [2]: 1.3 µM (active)

COc1ccc(CN2CCCC(CO)(Cc3ccc(F)cc3)C2)cc1C (stereo unspecified)
EC50 [1]: 9.58 µM (active) | EC50 [2]: 0.64 µM (active)

O=C(CON1C(=O)c2ccccc2C1=O)c1ccccc1
AC50 [5]: 6.31 µM (inconclusive)

Clc1ccccc1-c1nccc(NCCN2CCOCC2)n1
AC50 [6]: 12.6 µM (inconclusive)
